Test results: patent EP0694535A1, “Non-peptidyl tachykinin receptor antagonists” (ELI LILLY AND COMPANY, priority 1994, dated 1996)

What was measured:
NK-1 receptor = molecular target: T1, NK-1 receptor (Homo sapiens, UniProt P25103); assay: NK-1 Receptor Binding Assay (competition with labeled substance P on IM9 cells); conditions: concentration which inhibits fifty percent of the binding of substance P, 20 pM labeled substance P, 45 minutes at 4°C
T1 construct: an aliquot of IM9 cells; endogenous in cells; host or cells: IM9 cells (whole cells)
In short: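 IM9 cells (1 x 10⁶/tube in serum-supplemented RPMI) were incubated for 45 min at 4°C with 20 pM […] substance P plus rising competitor concentrations. Binding was stopped by filtration on PEI-soaked glass fiber filters. Nonspecific binding was defined with 20 nM unlabeled ligand.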

human NK-2 receptor = molecular target: T2, human NK-2 receptor (Homo sapiens, UniProt P21452); assay: NK-2 Receptor Binding Assay (CHO-hNK-2R membranes, iodohistidyl-neurokinin A); conditions: for inhibition at 10 µM: inhibition of neurokinin A binding at ten micromolar, read-out: Percent Inhibition @ 10 μM
T2 construct: expressed in transfected cells; host or cells: CHO-hNK-2R cells (CHO-derived), membrane preparation
T2 sequence (P21452 1-398): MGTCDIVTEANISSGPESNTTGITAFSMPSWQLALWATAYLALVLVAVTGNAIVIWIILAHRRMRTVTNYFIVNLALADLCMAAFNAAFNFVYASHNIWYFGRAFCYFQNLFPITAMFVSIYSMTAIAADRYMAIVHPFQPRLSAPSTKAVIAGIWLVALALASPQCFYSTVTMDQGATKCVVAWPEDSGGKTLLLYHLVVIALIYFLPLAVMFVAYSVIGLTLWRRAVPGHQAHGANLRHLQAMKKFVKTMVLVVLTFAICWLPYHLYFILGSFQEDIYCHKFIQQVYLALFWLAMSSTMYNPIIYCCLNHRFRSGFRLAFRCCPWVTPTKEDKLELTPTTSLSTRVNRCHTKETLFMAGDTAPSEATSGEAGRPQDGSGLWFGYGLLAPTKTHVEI
Procedure: The CHO-hNK-2R cells, a CHO-derived cell line transformed with the human NK-2 receptor, expressing about 400,000 such receptors per cell, were grown in 75 cm flasks or roller bottles in minimal essential medium (alpha modification) with 10% fetal bovine serum. The gene sequence of the human NK-2 receptor is given in N.P. Gerard, et al., Journal of Biological Chemistry, 265:20455-20462 (1990).
For preparation of membranes, 30 confluent roller bottle cultures were dissociated by washing each roller bottle with 10 ml of Dulbecco's phosphate buffered saline (PBS) without calcium and magnesium, followed by addition of 10 ml of enzyme-free cell dissociation solution (PBS-based, from Specialty Media, Inc.). After an additional 15 minutes, the dissociated cells were pooled and centrifuged at 1,000 RPM for 10 minutes in a clinical centrifuge. Membranes were prepared by homogenization of the cell pellets in 300 ml 50 mM Tris buffer, pH 7.4 with a Tekmar® homogenizer for 10-15 seconds, followed by centrifugation at 12,000 RPM (20,000 x g) for 30 minutes using a Beckman JA-14® rotor. The pellets were washed once using the above procedure. and the final pellets were resuspended in 100-120 ml 50 mM Tris buffer, pH 7.4, and 4 ml aliquots stored frozen at -70 °C. The protein concentration of this preparation was 2 mg/ml.
For the receptor binding assay, one 4-ml aliquot of the CHO-hNK-2R membrane preparation was suspended in 40 ml of assay buffer containing 50 mM Tris, pH 7.4, 3 mM manganese chloride, 0.02% bovine serum albumin (BSA) and 4 µg/ml chymostatin. A 200 µl volume of the homogenate (40 µg protein) was used per sample. The radioactive ligand was [[…]]iodohistidyl-neurokinin A (New England Nuclear, NEX-252), 2200 Ci/mmol. The ligand was prepared in assay buffer at 20 nCi per 100 µl; the final concentration in the assay was 20 pM. Non-specific binding was determined using 1 µM eledoisin. Ten concentrations of eledoisin from 0.1 to 1000 nM were used for a standard concentration-response curve.
All samples and standards were added to the incubation in 10 µl dimethylsulfoxide (DMSO) for screening (single dose) or in 5 µl DMSO for IC₅₀ determinations. The order of additions for incubation was 190 or 195 µl assay buffer, 200 µl homogenate, 10 or 5 µl sample in DMSO, 100 µl radioactive ligand. The samples were incubated 1 hr at room temperature and then filtered on a cell harvester through filters which had been presoaked for two hours in 50 mM Tris buffer, pH 7.7, containing 0.5% BSA. The filter was washed 3 times with approximately 3 ml of cold 50 mM Tris buffer, pH 7.7. The filter circles were then punched into 12 x 75 mm polystyrene tubes and counted in a gamma counter.
Table II, infra, provides a representative sample of the effectiveness as NK-2 receptor antagonists of many of the compounds of Formula I. The first column provides the Example number of the compound tested. The second column provides either the percent inhibition of neurokinin A binding when the compound is present in a ten micromolar concentration or the amount of compound (in micromolar amounts) necessary to inhibit fifty percent of the binding of neurokinin A. Those values which represent IC₅₀ values are designated by parentheses.

T1 sequence (P25103 whole entry): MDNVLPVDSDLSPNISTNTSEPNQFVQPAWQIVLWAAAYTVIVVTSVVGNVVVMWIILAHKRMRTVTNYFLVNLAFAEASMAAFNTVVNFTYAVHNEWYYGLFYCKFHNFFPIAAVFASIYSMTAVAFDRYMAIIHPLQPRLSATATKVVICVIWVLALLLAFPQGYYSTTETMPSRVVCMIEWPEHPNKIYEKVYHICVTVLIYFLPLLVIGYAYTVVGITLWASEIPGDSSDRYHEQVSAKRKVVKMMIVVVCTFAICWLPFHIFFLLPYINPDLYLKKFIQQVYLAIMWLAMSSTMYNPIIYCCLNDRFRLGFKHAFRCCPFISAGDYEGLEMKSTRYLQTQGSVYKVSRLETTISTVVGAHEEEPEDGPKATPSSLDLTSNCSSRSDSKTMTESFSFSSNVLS

Row | IC50 (NK-1 receptor) [nM] | IC50 (human NK-2 receptor; values in parentheses, amount necessary to inhibit fifty percent of the binding of neurokinin A) [µM] | inhibition at 10 µM (human NK-2 receptor) [%] | Structure (SMILES)
1 | 123 | 6.25 | – | COc1cc(-c2nc3ccc(OCCN4CCC(N5CCCCC5)CC4)cc3n2Cc2ccccc2)cc(OC)c1OC [Example 77, 1-benzyl-2-(3,4,5-trimethoxyphenyl)-6-[2-[4-(piperidin-1-yl)piperdin-1-yl]ethoxy]benzimidazole]
2 | 590 | – | 37.8 | Cc1cccc(-c2nc3ccc(O)cc3n2Cc2ccccc2)c1 [Example 84, 1-benzyl-2-(3-methylphenyl)-6-hydroxybenzimidazole]
3 | 753 | – | 73.1 | Cc1cccc(-c2nc3ccc(OCCN4CCCCC4)cc3n2Cc2ccccc2)c1 [Example 85, 1-benzyl-2-(3-methylphenyl)-6-[2-(1-piperidinyl)ethoxy]benzimidazole]
